Reference: PubChem BioAssay (NCI)
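48-hour exposure; five concentrations; linearly interpolated endpoints. TGI is the concentration that stops growth completely.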

Legend:
Assay in all cases: inhibition of tumour cell growth, NCI panel, 48 h
A549 NSCLC = tested on: A549 NSCLC
CCRF-CEM leukemia = tested on: CCRF-CEM leukemia
COLO 205 colon = tested on: COLO 205 colon
K-562 leukemia = tested on: K-562 leukemia
M14 melanoma = tested on: M14 melanoma
MDA-MB-435 = tested on: MDA-MB-435
MDA-N = tested on: MDA-N
OVCAR-8 ovarian = tested on: OVCAR-8 ovarian
SF-295 CNS = tested on: SF-295 CNS
SK-MEL-2 melanoma = tested on: SK-MEL-2 melanoma
U251 CNS = tested on: U251 CNS
UACC-62 melanoma = tested on: UACC-62 melanoma
UO-31 renal = tested on: UO-31 renal

Compound	TGI (A549 NSCLC) [µM]	TGI (CCRF-CEM leukemia) [µM]	TGI (COLO 205 colon) [µM]	TGI (K-562 leukemia) [µM]	TGI (M14 melanoma) [µM]	TGI (MDA-MB-435) [µM]	TGI (MDA-N) [µM]	TGI (OVCAR-8 ovarian) [µM]	TGI (SF-295 CNS) [µM]	TGI (SK-MEL-2 melanoma) [µM]	TGI (U251 CNS) [µM]	TGI (UACC-62 melanoma) [µM]	TGI (UO-31 renal) [µM]
O=C1CCC[C@@H]2NC[C@@H](c3ccc4c(c3)OCO4)[C@H]12	> 25	> 25	> 25	> 25	> 25	> 25	> 25	> 25	> 25	> 25	> 25	> 25	> 25
Cc1nc2c(sc(=S)n2-c2ccccc2)c2nc3ncccc3n12	> 100	> 100	> 100	> 100	> 100	> 100	> 100	> 100	> 100	> 100	> 100	> 100	> 100
COc1cc(-c2cc(=O)c3cc4c(cc3[nH]2)OCO4)cc(OC)c1O	> 10	> 10	> 10	> 10	> 10	> 10	> 10	> 10	> 10	> 10	> 10	> 10	> 10
C[N+]1=C2[B-](C(C)(C)C)=[N+](C(C)(C)C)[B-]2(C(C)(C)C)[N+](C)=C2[B-](C(C)(C)C)=[N+](C(C)(C)C)[B-]21C(C)(C)C (centres undefined)	> 100	> 100	> 100	> 100	> 100	> 100	> 100	> 100	> 100	> 100	> 100	> 100	> 100
NC(C(F)(F)F)(C(F)(F)F)P(=O)(Cc1ccccc1)Cc1ccccc1	> 100	> 100	> 100	> 100	> 100	> 100	> 100	> 100	> 100	> 100	> 100	> 100	> 100
CCN(CC)CCc1c2c(nc3ccccc13)C(=O)c1cccnc1C2=O	8.65	5.72	3.07	4.23	1.73	4.99	4.54	> 100	5.41	10.4	20	2.97	–
Cc1ccc(C(=O)Nc2ccc(CP(=O)(O)O)cc2CP(=O)(O)O)cc1NC(=O)c1cccc(N)c1	> 100	> 100	> 100	> 100	> 100	> 100	> 100	> 100	> 100	> 100	> 100	> 100	> 100
O=C(NNC(=S)Nc1ccc(Cl)cc1)c1cc(-c2ccccc2)nc2ccccc12	21.3	6.91	18.2	93.1	18.7	11.4	6.5	29.1	9.22	9.89	16.1	12.6	18.1
COc1cc2c(cc1OC)C1=Cc3cc(OC)c(OC)cc3C(C)N1C=C2 (centres undefined)	> 100	> 100	> 100	> 100	> 100	> 100	> 100	> 100	> 100	–	> 100	> 100	> 100
OCCCCCNc1c2ccccc2nc2ccccc12	> 29.7	> 61.7	4.54	14.2	6.91	8.5	7.42	8.72	10.5	7.43	20.8	3.92	10
Cc1ccc(-c2c(C#N)c(-c3ccccc3)n(NS(=O)(=O)c3ccccc3)c(=O)c2C#N)cc1	> 100	> 100	> 100	> 100	> 100	> 100	> 100	> 100	> 100	> 100	> 100	> 100	–
CC[C@]1(Cc2ccc(OC)c(OC)c2)CN(S(=O)(=O)c2ccc(C)cc2)C[C@@H]1OC(C)=O	> 100	> 100	> 100	> 100	> 100	> 100	> 100	> 100	> 100	> 100	> 100	> 100	> 100
CC(=O)OCC(C)C1=C(O)C(=O)C2(C)C/C=C(/C)CC/C=C(\C)CCC(O)C(C)CCC12 (centres undefined)	33.8	70.9	31.1	53.4	33.8	32.2	33.6	46.6	29.9	39.3	30.8	36.8	27.2
C=C(C)C12CC(COC(=O)c3ccccc3)C34OC5(OC1C3C1OC1(CO)C(O)C1(O)C(OC(=O)c3ccccc3)C(C)C(C(C)CCCCCCC5O)C14)O2 (centres undefined)	–	> 100	24.4	> 100	> 100	> 79.3	> 100	> 100	> 100	> 100	> 74.6	> 100	> 100
CCOc1cc(NC(C)=O)ccc1C(=O)NNC(=O)c1ccccc1OC(C)=O	> 100	> 100	> 77.9	> 40.3	26.6	> 100	> 100	> 100	> 100	> 100	> 100	37	> 100
O=C(O)c1c2c(cc3c1CC1(Cc4ccccc4C1)C3)CCC2	> 100	66.7	> 100	> 100	–	> 100	> 100	> 100	> 100	–	> 100	> 100	> 100
O=C1/C(=C/c2ccccc2)N=C(c2ccccc2)N1n1c(-c2ccccc2)nc2ccccc2c1=O	> 100	> 100	> 100	> 100	> 100	> 100	> 100	> 100	> 100	–	> 100	> 100	> 100
